Assay results as given in patent publication US12497403B2, “Factor XIa inhibitors” (Merck Sharp & Dohme LLC, priority 2021, dated 2025).

Assays:
[1] = target: human Factor XIa (Homo sapiens, UniProt P03951); test: Factor XIa assay; type: biochemical; conditions: human Factor XIa 0.04 nM, GPR-AFC substrate, 25° C., pH 7.4; read-out: FXIa IC50
Experimental: The effectiveness of a compound of the present invention as an inhibitor of Coagulation Factor XIa can be determined using a relevant purified serine protease, and an appropriate synthetic substrate. The rate of hydrolysis of the chromogenic or fluorogenic substrate by the relevant serine protease was measured both in the absence and presence of compounds of the present invention. Assays were conducted at room temperature or at 37° C. […] A decrease in the rate of fluorescence change in the presence of inhibitor is indicative of enzyme inhibition. Such methods are known to one skilled in the art. The results of this assay are expressed as the half-maximal inhibitory concentrations (IC50), or the inhibitory constant, Ki.
Compounds were pre-incubated for 30 minutes at 25° C. with human (0.04 nM) Factor XIa in 50 mM HEPES buffer with 150 mM sodium chloride, 5 mM calcium chloride, 0.1% PEG 8000, pH 7.4. Factor XIa enzymatic activity was determined by addition of the substrate glycine-proline-arginine-7-amido-4-trifluoromethylcoumarin (GPR-AFC) and measurement of the fluorescence at 400/505 nm after a 60 minute incubation at 25° C. The % inhibition for each data point was calculated from the data and analyzed using the log (inhibitor) vs. response four parameters equation to determine the half-maximal inhibitory concentrations (IC50). The IC50 were converted to equilibrium inhibitory constants (Ki) using the Cheng-Prusoff equation.

[2] = Dog pharmacokinetics (screening IV/PO or cassette IV); type: in vivo; conditions: male; dog plasma, mean residence time
Experimental: Plasma pharmacokinetic parameters for clearance, volume of distribution, half-life, mean residence time (MRT) and oral bioavailability were determined in dogs from oral administration and IV administration studies. 4 male dogs, typically weighing 8-12 kilograms, were fasted overnight prior to dosing. Compounds were prepared for oral and IV dosing by addition to a vehicle, depending on the dose used. For a typical preparation, 1 mg per mL (IV) or 1.5 mg per mL (oral) of test compound was added to vehicle comprised of 20% dimethyl sulfoxide (DMSO), 60% polyethylene glycol 400 (PEG400) and 20% water. IV formulation was administered to 2 dogs via the saphenous or cephalic vein, and oral dosing was administered to 2 dogs via oral gavage. Blood was collected by the cephalic or jugular vein, typically at predose, 2 min, 8 min, 15 min, 30 min, and 1, 2, 4, 6, 8 and 24 hr postdose for IV, and at predose, 15 min, 30 min, and 1, 2, 4, 6, 8, and 24 hr for oral dosing. Samples were collected in K2EDTA tubes, stored on ice. and centrifuged. Plasma was transferred to a micro titer plate and stored at −70° C.until analysis. Plasma samples were extracted using protein precipitation and analyzed by liquid chromatography separation followed by mass spec detection (LCMS/MS), using a standard curve for each compound. Plasma pharmacokinetic parameters were calculated for IV and oral dosing data by non-compartmental methods. Oral bioavailability was determined as the ratio of the dose-normalized plasma area under the curve (AUC) following oral dosing vs. IV dosing.
Plasma pharmacokinetic parameters for clearance, volume of distribution, half-life, and mean residence time (MRT) were determined in dogs from IV cassette administration studies. 2 male dogs, typically weighing 8-12 kilograms, were fasted overnight prior to dosing. Compounds were prepared for IV dosing by addition to a vehicle, depending on the dose used. For a typical preparation, 1 mg per mL (IV) of up to 5 test compounds were added to vehicle comprised of 20% dimethyl sulfoxide (DMSO), 60% polyethylene glycol 400 (PEG400) and 20% water. IV formulation was administered to 2 dogs via the saphenous or cephalic vein. Blood was collected by the cephalic or jugular vein, typically at predose. 2, 8, 15, 30 min, 1, 2, 4, 6, 8 and 24 hr postdose. Samples were collected in K2EDTA tubes, stored on ice, and centrifuged. Plasma was transferred to a micro titer plate and stored at −70° C. until analysis. Plasma samples were extracted using protein precipitation and analyzed by liquid chromatography separation followed by mass spec detection (LCMS/MS), using a standard curve for each compound. Plasma pharmacokinetic parameters were calculated by non-compartmental methods.

[3] = Rat pharmacokinetics (cassette IV or screening IV/PO); type: in vivo; conditions: male; rat plasma, mean residence time
Experimental: Plasma pharmacokinetic parameters for clearance, volume of distribution, half-life and mean residence time (MRT) were determined in rats from IV cassette administration studies. 2 male rats typically weighing 225-260 gram, were fasted overnight prior to dosing. Compounds were prepared for IV dosing by addition to a vehicle, depending on the dose used. For a typical preparation, 1 mg per mL (IV) of up to 5 test compounds were added to vehicle comprised of 20% dimethyl sulfoxide (DMSO), 60% polyethylene glycol 400 (PEG400) and 20% water. IV formulation was administered to 2 rats via pre-cannulated jugular vein. Blood was collected by pre-cannulated artery, typically at predose, 2, 8, 15, 30 min. 1, 2, 4, 6, and 8 hr postdose. Samples were collected in K2EDTA tubes, stored on ice, and centrifuged. Plasma was transferred to a micro titer plate and stored at −70° C.until analysis. Plasma samples were extracted using protein precipitation and analyzed by liquid chromatography separation followed by mass spec detection (LCMS/MS), using a standard curve for each compound. Plasma pharmacokinetic parameters were calculated by non-compartmental methods.
Plasma pharmacokinetic parameters for clearance, volume of distribution, half-life, mean residence time (MRT) and oral bioavailability (%F)-were determined in rats from oral administration and IV administration studies. 4 male rats, typically weighing 225-260 gram, were fasted overnight prior to dosing. Compounds were prepared for oral and IV dosing by addition to a vehicle, depending on the dose used. For a typical preparation, 1 mg per mL (IV) or 1.5 mg per mL (oral) of test compound was added to vehicle comprised of 20% dimethyl sulfoxide (DMSO), 60% polyethylene glycol 400 (PEG400) and 20% water. IV formulation was administered to 2 rats via pre-cannulated jugular vein, and oral dosing was administered to 2 rats via oral gavage. Blood was collected by pre-cannulated artery, typically at predose, 2 min, 8 min, 15 min. 30 min, and 1, 2, 4, 6, and 8 hr postdose for IV, and at predose, 15 min, 30 min, and 1, 2, 4, 6, 8 hr for oral dosing. Samples were collected in K2EDTA tubes, stored on ice, and centrifuged. Plasma was transferred to a micro titer plate and stored at −70° C. until analysis. Plasma samples were extracted using protein precipitation and analyzed by liquid chromatography separation followed by mass spec detection (LCMS/MS), using a standard curve for each compound. Plasma pharmacokinetic parameters were calculated for IV and oral dosing data by non-compartmental methods. Oral bioavailability was determined as the ratio of the dose-normalized plasma area under the curve (AUC) following oral dosing vs. IV dosing.

Chain of human Factor XIa (P03951 388-625 limits assumed): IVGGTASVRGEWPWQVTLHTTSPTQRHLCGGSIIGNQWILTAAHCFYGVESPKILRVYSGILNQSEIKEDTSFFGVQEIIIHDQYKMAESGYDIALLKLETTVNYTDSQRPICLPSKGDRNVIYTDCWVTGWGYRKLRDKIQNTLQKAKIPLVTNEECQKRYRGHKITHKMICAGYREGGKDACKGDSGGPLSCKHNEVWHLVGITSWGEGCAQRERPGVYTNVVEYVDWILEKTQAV
Chain of human Factor XIa (P03951 19-387 partner limits assumed): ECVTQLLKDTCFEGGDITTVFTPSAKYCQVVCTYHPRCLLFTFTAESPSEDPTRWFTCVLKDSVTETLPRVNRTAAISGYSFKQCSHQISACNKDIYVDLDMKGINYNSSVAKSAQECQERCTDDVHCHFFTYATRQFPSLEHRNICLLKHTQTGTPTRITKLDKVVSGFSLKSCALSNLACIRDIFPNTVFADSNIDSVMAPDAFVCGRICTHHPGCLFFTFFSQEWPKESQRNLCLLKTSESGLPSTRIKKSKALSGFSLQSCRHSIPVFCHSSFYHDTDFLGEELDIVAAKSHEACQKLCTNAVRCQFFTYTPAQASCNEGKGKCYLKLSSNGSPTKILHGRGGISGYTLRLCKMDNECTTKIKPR

Row | IC50 [1] | MRT [2] | MRT [3] | Structure (SMILES)
1 | 0.97 nM | 15 h | 3.7 h | CCOC(=O)c1[nH]c2nc1-c1ccc(NC(=O)OC)cc1NC(=O)C(C)(C)CCC[C@@H]2c1ccc(-c2cc(Cl)ccc2-n2cc(C(F)(F)F)cn2)c[n+]1[O-] [Example 2, (R,Z)-5-(5-chloro-2-(4-(trifluoromethyl)-1H-pyrazol-1-yl)phenyl)-2-(1^5-(ethoxycarbonyl)-2^4-((methoxycarbonyl)amino)-5,5-dimethyl-4-oxo-1^1H-3-aza-1(4,2)-imidazola-2(1,2)-benzenacyclononaphane-9-yl)pyridine 1-oxide]
2 | 1.3 nM | 9.9 h | 3.8 h | CCOC(=O)c1[nH]c2nc1-c1ccc(NC(=O)OC)cc1NC(=O)C(C)(C)CCC[C@@H]2c1ccc(-c2cc(Cl)cnc2OC(F)F)c[n+]1[O-] [Example 4, (R,Z)-5′-chloro-2′-(difluoromethoxy)-6-(1^5-(ethoxycarbonyl)-2^4-((methoxycarbonyl)amino)-5,5-dimethyl-4-oxo-1^1H-3-aza-1(4,2)-imidazola-2(1,2)-benzenacyclononaphane-9-yl)-[3,3′-bipyridine] 1-oxide]
3 | 0.81 nM | 8.9 h | 3.1 h | COC(=O)Nc1ccc2c(c1)NC(=O)C(C)(C)CCC[C@H](c1ccc(-c3cc(F)ccc3-n3cc(C(F)(F)F)cn3)c[n+]1[O-])c1nc-2c(C(=O)OC)[nH]1 [Example 6, (R,Z)-5-(5-fluoro-2-(4-(trifluoromethyl)-1H-pyrazol-1-yl)phenyl)-2-(1^5-(methoxycarbonyl)-2^4-((methoxycarbonyl)amino)-5,5-dimethyl-4-oxo-1^1H-3-aza-1(4,2)-imidazola-2(1,2)-benzenacyclononaphane-9-yl)pyridine 1-oxide]
4 | 0.26 nM | 6.1 h | 3.2 h | CCOC(=O)c1[nH]c2nc1-c1ccc(NC(=O)OC)cc1NC(=O)C(C)(C)CCC[C@@H]2c1ccc(-c2cc(F)ccc2OC(F)F)c[n+]1[O-] [Example 3, (R,Z)-5-(2-(difluoromethoxy)-5-fluorophenyl)-2-(1^5-(ethoxycarbonyl)-2^4-((methoxycarbonyl)amino)-5,5-dimethyl-4-oxo-1^1H-3-aza-1(4,2)-imidazola-2(1,2)-benzenacyclononaphane-9-yl)pyridine 1-oxide]
5 | 0.88 nM | 12 h | 4 h | CCOC(=O)c1[nH]c2nc1-c1ccc(NC(=O)OC)cc1NC(=O)C(C)(C)CCC[C@@H]2c1ccc(-c2cc(F)ccc2-n2cc(C(F)(F)F)cn2)c[n+]1[O-] [Example 1, (R,Z)-2-(1^5-(ethoxycarbonyl)-2^4-((methoxycarbonyl)amino)-5,5-dimethyl-4-oxo-1^1H-3-aza-1(4,2)-imidazola-2(1,2)-benzenacyclononaphane-9-yl)-5-(5-fluoro-2-(4-(trifluoromethyl)-1H-pyrazol-1-yl)phenyl)pyridine 1-oxide]
6 | 0.19 nM | 7.2 h | 3.7 h | CCOC(=O)c1[nH]c2nc1-c1ccc(NC(=O)OC)cc1NC(=O)C(C)(C)CCC[C@@H]2c1ccc(-c2cccc(Cl)c2F)c[n+]1[O-] [Example 5, (R,Z)-5-(3-chloro-2-fluorophenyl)-2-(1^5-(ethoxycarbonyl)-2^4-((methoxycarbonyl)amino)-5,5-dimethyl-4-oxo-1^1H-3-aza-1(4,2)-imidazola-2(1,2)-benzenacyclononaphane-9-yl)pyridine 1-oxide]
